What was measured:
Type in all cases: cell-based, human
[1] = tested on: colorectal BRAF (V600E) patient tumor; test: EVOC of a colorectal BRAF (V600E) patient biopsy, viability; conditions: Dabrafenib 4 μM/trametinib 0.5 μM with or without trastuzumab or AZD4547 2 μM
Experimental: Freshly resected biopsy was sliced, and cultured ex vivo. Following 4 days of drug treatment, slices were fixed and embedded in paraffin blocks. FFPE slices were stained by H&E, and the percentage of viable cancer cells was morphologically assessed on H&E stained sections by a pathologist as the ratio between viable cancer cell area and total cancer area (viable cancer cells plus necrotic cancer cells). […] Vehicle—DMSO, FGFRi—AZD4547 2 μM, HER2i—trastuzumab 30 g/ml, BRAFi/MEKi—Dabrafenib 4 μM/trametinib 0.5 μM.
Tumor tissue was obtained from patients at the time of operation or at the time of tissue core biopsy. Following resection, the fresh tissue was placed in ice-cold PBS for immediate transfer to the lab for ex vivo organ culturing. […]
Immunohistochemistry of EVOC tissues: To assess response therapy, 4 μm FFPE tissue slices were stained with H&E, or with specific antibodies: anti-pERK (Cell Signaling, #4370) followed by HRP conjugated secondary antibody (anti-Rabbit HRP, ZUC032, ZytoChem) and DAB staining (DAB substrate kit, DAB057, ZytoChem). […] All slides were scanned using the Pannoramic SCAN II (3[sequence]) and analyzed by a pathologist. The percentage of viable cancer cells was morphologically assessed on H&E stained sections by a pathologist as the ratio between viable cancer cell area and total cancer area (viable cancer cells plus necrotic cancer cells).

[2] = tested on: SK-MEL-5 BRAF (V600E) melanoma cells; test: Co-culture of stroma (WI-38 or HS-5) and cancer cells; conditions: co-culture with HS-5; inhibitor added to vemurafenib
Experimental: SK-MEL-5 BRAF (V600E) melanoma cells were co-cultured with the lung-derived stromal cell line WI-38 or with the bone marrow-derived stromal cell line HS-5 with or without vemurafenib (4 μM). […] Vehicle—DMSO, EGFRi—gefitinib (0.1 μM), EGFRi/HER2i—lapatinib (10 nM), METi—crizotinib (0.1 μM), FGFRi—AZD4547 (50 nM), NFkB/TNFRi—CAPE (10 μM), TGFBRi-LY2109761 (0.5 μM), gp130i—SC144 (1 nM). […] Error bars represent standard error. […] Error bars represent standard error. […] Human BRAF (V600E) melanoma cell lines UACC62 or G361 were used to generate xenograft tumor models in various tissues of nude mice. When tumors reached a volume of 500-700 μmm^3, they were resected, sliced, and cultured ex-vivo in the presence of different drug combinations or DMSO control. Following 4 days of drug treatment, slices were fixed, embedded in paraffin blocks, and subjected to immunohistochemistry, using anti-pERK antibody, or to immuno-fluorescence, using anti-pFGFR1 antibody. BRAFi (vemurafenib, 4 μM), FGFRi (AZD4547, 2 μM). Scale bar represents 50 μm.
Four hours later, the melanoma BRAF (V600E) mutated cell line SK-MEL-5 was seeded on top of the stromal cells at a concentration of 1700 cells per well, or seeded without stroma. […] Concentrations of the inhibitors were based on dose curves with SK-MEL-5. For each inhibitor of potential mechanism of resistance, the maximal concentration with minimal effect (toxicity) on cell growth was selected (Cmax).
To compare rScore value of stroma-mediated resistance with or without a given inhibitor, the rScore values of each inhibitor in the presence of stroma, was calculated. As a reduction in rScore may stem from mere toxicity of the inhibitor, rather than the abrogation of the stroma mediated resistance, each inhibitor rScore was penalized by its toxicity.
rScoreinhibitor=rScoreinhibitor+(rScorestroma−rScoreinhibitor)*tOxicitY(Cmax)inhibitor

[3] = tested on: HT-29 orthotopic xenograft colorectal tumors; test: EVOC of orthotopic colon tumors, pERK and H&E/BrDu; conditions: AZD4547 0.5 μM, 96 hours of incubation
Excerpt: 500-700 μmm^3 tumors were resected, sliced, and cultured ex-vivo. Following 4 days of drug treatment, slices were fixed and embedded in paraffin blocks. FFPE slices were stained by H&E, and the percentage of viable cancer cells was morphologically assessed on H&E stained sections by a pathologist as the ratio between viable cancer cell area and total cancer area (viable cancer cells plus necrotic cancer cells). […] Each black dot in a given treatment condition represents a different tumor. P-values were calculated by two-sided t-test. *** P<0.001 ** P<0.01. Error bars represent standard error. […] Names of the six secreted factors with the highest rScore are shown. Factors related to TNF pathways are marked in gray. Results represent the average of at least two experiments. […] Cohort size pre-treatment: 5-6, P-values of the difference on the last day of experiment were calculated by one-sided Mann-Whitney test. * P<0.05. […] Viability percentage was calculated based on the entire field of view per treatment combination. […] FFPE slices were stained by pERK and pERK activity was assessed by a pathologist. […]
For the ex-vivo experiments EVOCs from immunocompromised mice bearing human tumors were generated, as further described hereinbelow. For the in-vivo validation experiments, mice bearing subcutaneous tumors were used; and response was measured by evaluating tumor volume. […]

## AZD4547
[1]
  cancer cell viability: did not improve the response to treatment
[2]
  abrogation of stroma-mediated resistance to vemurafenib: needed to abrogate the resistance effect of HS-5
[3]
  H&E and BrDu staining of tissue: live and proliferating tissue

Source: patent US20240133870A1, “COMBINED TREATMENT FOR CANCER” (Yeda Research and Development Co. Ltd., priority 2021, published 2024)
